Results published in patent publication US20260130885A1, “ANTIMICROBIAL COMPOSITIONS, PHARMACEUTICAL COMPOSITIONS AND USE THEREOF” (priority 2022, published 2026).
≈ marks a conversion by molar mass, not a printed value. Like-named read-outs stand apart in the source and are kept apart here.

Legend:
[1] = tested on: MRSA USA300 persister cells; assay: Persister killing assay; type: cell-based, Staphylococcus aureus; conditions: SC5005 16×MIC, 4 mg/L; FIG. 1
Description: (§1) The number of viable bacteria in broth after each exposure period was enumerated by a cfu assay and expressed as cfu/mL; the data shown are the mean±SD (standard deviation) of independent experiments. […] The number of viable bacteria in the broth after each exposure period was calculated by a cfu assay (cfu/mL); the data are shown as the mean±SD of three independent experiments (n=3 for each group). Since the standard deviation of each point is very small, the error line is not shown in each graph. The horizontal dashed line in the upper left graph and the upper right graph represents […] of the bacterial cells killed. In addition, the blank controls in FIG. 1 are shown as filled diamonds.
(§2) Bacteria were collected by centrifugation at 4000×g for 10 min at 4° C., washed with ice-cold PBS, and suspended in PBS with test agents. Controls received DMSO and ethanol vehicles at concentrations equal to those for drug-treated bacteria. At the designated times, the number of viable bacteria was assessed by serial dilution of a 100 μL aliquot bacterial suspension in PBS and then spread onto LB agar plates. After incubation at 37° C. for 18-24 hours, the number of colonies was counted and expressed as cfu/mL.

[2] = tested on: S. aureus NCTC8325 persister cells; assay: Persister killing assay; type: cell-based, Staphylococcus aureus; conditions: SC5005 16×MIC, 4 mg/L; FIG. 1
Description: as §1, §2

[3] = tested on: MRSA USA300; assay: Antibacterial activity assay (MIC by broth microdilution, MBC by subculture); type: cell-based, Staphylococcus aureus
How it was run: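 CLSI broth microdilution: mid-log cultures (OD600 0.5 to 0.6) diluted to 5×10^5 cfu/mL in CAMHB, exposed to increasing doses in triplicate 24 hours at 37° C. MIC is lowest concentration without visible growth. For USA300, MBC is the lowest dilution without viable bacteria on subculture.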

[4] = tested on: antibiotic-resistant Staphylococcus aureus; assay: MIC against all strains of Table 4; type: cell-based; conditions: agent alone, all the bacterial strains under the examination
Description: The antimicrobial activity was based on MIC and MBC; MIC is the minimum inhibitory concentration and MBC is the minimum bactericidal concentration. The MIC of individual test agents against MRSA USA300 strains was determined using the broth microdilution method according to CLSI guidelines. Briefly, overnight bacterial cultures in LB medium were diluted 1:50 in fresh LB medium and incubated at 37° C. until reaching an OD600 of 0.5 to 0.6. Bacterial suspensions were diluted to a final concentration of 5×10^5 cfu/mL in fresh CAMHB and then exposed to each test agent at increasing doses in triplicate in 96-well plates for 24 hours at 37° C. The MIC of each agent was defined as the lowest concentration without visible bacterial growth. […] The lowest broth dilution that had no viable bacteria was considered the MBC.
Then, the combination effect was measured by calculating their corresponding fractional inhibitory concentration index (FICI) with the equation ΣFIC (FICi)=FICA+FICB=(CombA/MICA)+(CombB/MICB), where MICA and MICB are the MICs of drugs A and B alone, respectively, and CombA and CombB are the concentrations of drugs A and B in combination, respectively. […]
The antibacterial activity of the SC5005-DHA composition against a series of antibiotic-resistant Staphylococcus aureus was analyzed, and the results are shown in Table 4.

[5] = tested on: MRSA ATCC33592; assay: Antibacterial activity assay (MIC, broth microdilution); type: cell-based, Staphylococcus aureus; conditions: for MIC: Staphylococcus aureus
[6] = tested on: MRSA SCCmec VT; assay: as above; type: cell-based, Staphylococcus aureus; conditions: for MIC: Staphylococcus aureus, MRSA
[7] = tested on: VRSA SJC1200; assay: as above; type: cell-based, Staphylococcus aureus; conditions: for MIC: Staphylococcus aureus, VRSA
[8] = Antiproliferation assay (MTT); type: cell-based; conditions: human, read-out: CC50 of SC5005
Description: The murine macrophage cell line RAW264.7 (BCRC) and human cervical epithelioid carcinoma cell line HeLa (BCRC) were maintained in Dulbecco's modified Eagle's medium (DMEM; Gibco-BRL) supplemented with 10% heat-inactivated FBS (Gibco-BRL). The human embryonic kidney cell line HEK-293 (BCRC) and the immortalized nontumorigenic keratinocyte cell line HaCaT (obtained from Dr. Yung-Chiy Chang, National Taiwan University, Taiwan) were maintained in Roswell Park Memorial Institute (RPMI; Gibco-BRL) medium supplemented with 10% heat-inactivated FBS. Cells were cultured in T-75 flasks at 37° C. in a 5% CO2 atmosphere.
The effects of SC5005 and DHA on the viability of mammalian cells were assessed using a 3-(4,5-dimethylthiazol-2-yl)-2,5-diphenyl-2H-tetrazolium bromide (MTT) assay in six replicates per treatment group. Briefly, cells were seeded into 96-well, flat-bottomed plates at 10^4 cells/well, cultured for 24 hours, and then exposed to SC5005 at concentrations ranging from 5-30 mg/L or the combination of SC5005 with designated concentrations of DHA for 24 hours. Controls were treated with DMSO and ethanol vehicles at concentrations equal to those for drug-treated cells. At the end of treatments, the medium was replaced with 0.5 g/L MTT-containing culture medium, and the cells were incubated in a CO2 incubator at 37° C. for an additional 1.5 hours. Supernatants were removed from the wells, and the reduced MTT dye was solubilized in DMSO followed by measuring the absorbance at 570 nm of each well using a VersaMax microplate reader (Molecular Devices, USA).

[9] = tested on: Staphylococcus aureus NCTC8325; assay: Time-kill kinetics (cfu assay); type: cell-based; conditions: SC5005 4×MIC, 1 mg/L; FIG. 1
Description: as §1
In this experiment, the inventor analyzed the time-kill kinetics of SC5005, DHA, and a combination thereof against Staphylococcus aureus NCTC8325 and MRSA USA300, and the results are shown in FIG. 1. It can be seen in FIG. 1 that SC5005 killed more than 99.9% of the bacteria within 24 hours. […] Besides, it is well known in the art that Staphylococcus aureus can enter a dormant state (i.e., become the so-called persister cells) and develop resistance to antibiotic treatment, thus leading to repeated bacterial infections.

With `O=C(Nc1ccc(Cl)c(C(F)(F)F)c1)C(CCCl)C(=O)Nc1ccc(Cl)c(C(F)(F)F)c1` [SC5005] the “time to eradication of persister cells” value [1] was no more than 24 h, the “time to eradication of persister cells” value [2] was no more than 24 h and the MBC ([3]; +8 mg/L DHA) was 0.0078 µg/mL. The MIC ([3]; +8 mg/L DHA) was 0.0038 ng/mL, the MIC ([3]; +8 mg/L DHA, MRSA USA300 (Table 4)) was 0.015 ng/mL and the combination effect ([3]; MIC, +8 mg/L DHA, MRSA USA300 (Table 4)) was “(Syn) (Synergy (Syn) was defined as an FICI≤0.5)”. For the same molecule, the MBC ([3]; Staphylococcus aureus, MRSA / SC5005 / USA300, fatty acid 0 mg/L (SC5005 alone), read-out: MBC SC5005) was 2 µg/mL, the MIC ([3]; Staphylococcus aureus, MRSA / SC5005 / USA300, fatty acid 0 mg/L (SC5005 alone), read-out: MIC SC5005) was 250 ng/mL and the MBC ([3]; Staphylococcus aureus, amide compound alone, read-out: MBC) was 2 µg/mL. The MIC ([3]; Staphylococcus aureus, amide compound alone, read-out: MIC) was 250 ng/mL, the MIC ([3]; agent alone, MRSA USA300 (Table 4)) was 250 ng/mL and the MIC [4] was 0.25 µg/mL. For the same molecule, the combination effect ([5]; MIC, +8 mg/L DHA) was “(Syn) (Synergy (Syn) was defined as an FICI≤0.5)”, the MIC ([5]; +8 mg/L DHA) was 0.00049 µg/mL (≈ 0.939 nM) and the MIC ([5]; agent alone) was 0.25 µg/mL (≈ 479 nM). The combination effect ([6]; MIC, +8 mg/L DHA) was “(Syn) (Synergy (Syn) was defined as an FICI≤0.5)”, the MIC ([6]; +8 mg/L DHA) was 0.0019 ng/mL (≈ 0.00364 nM) and the MIC ([6]; agent alone) was 250 ng/mL (≈ 479 nM). The combination effect ([7]; MIC, +8 mg/L DHA) was “(Syn) (Synergy (Syn) was defined as an FICI≤0.5)”, the MIC ([7]; +8 mg/L DHA) was 0.0019 ng/mL (≈ 0.00364 nM) and the MIC ([7]; agent alone) was 250 ng/mL (≈ 479 nM). The CC50 at 24 h ([8]; HEK-293 cells, DHA 0 mg/L) was 14.1 ± 1.4 µg/mL, the CC50 at 24 h ([8]; HEK-293 cells, DHA 4 mg/L) was 15.6 ± 0.6 µg/mL and the CC50 at 24 h ([8]; HEK-293 cells, DHA 8 mg/L) was 14.9 ± 1.6 µg/mL. It also gave a CC50 at 24 h ([8]; HEK-293 cells, DHA 16 mg/L) of 14 ± 0.8 µg/mL, a CC50 at 24 h ([8]; HaCaT keratinocyte cells, DHA 0 mg/L) of 18 ± 1.7 µg/mL and a CC50 at 24 h ([8]; HaCaT keratinocyte cells, DHA 4 mg/L) of 19.5 ± 1.7 µg/mL. The CC50 at 24 h ([8]; HaCaT keratinocyte cells, DHA 8 mg/L) was 20.5 ± 0.3 µg/mL, the CC50 at 24 h ([8]; HaCaT keratinocyte cells, DHA 16 mg/L) was 18.1 ± 1.6 µg/mL and the CC50 at 24 h ([8]; HeLa cells, DHA 0 mg/L) was 22.5 ± 0.7 µg/mL. It also gave a CC50 at 24 h ([8]; HeLa cells, DHA 4 mg/L) of 24.2 ± 3.6 µg/mL, a CC50 at 24 h ([8]; HeLa cells, DHA 8 mg/L) of 21.9 ± 1.6 µg/mL and a CC50 at 24 h ([8]; HeLa cells, DHA 16 mg/L) of 21.4 ± 1.4 µg/mL. The “bacteria killed within 24 hours” value [9] was “more than 99.9%”.
